Test: Safety and tolerability (adverse events, laboratory tests, ECG), multiple-ascending-dose phase 1 study
Format: in vivo
Description: Subjects were monitored closely with serial physical examinations, blood evaluations, and 12-lead ECGs. Subjects underwent safety laboratory testing, including measurement of blood cell counts (white blood cell [WBC] with differential, hemoglobin, and platelets), serum chemistry (sodium, potassium, chloride, calcium, bicarbonate, glucose, creatinine, blood urea nitrogen [BUN], creatine kinase [CK], aspartate aminotransferase [AST], alanine aminotransferase [ALT], alkaline phosphatase [ALP], total bilirubin, protein, albumin, amylase, and lipase) and urinalysis (protein, blood, and glucose). Study halting criteria had been established and were reviewed by an independent safety monitor (ISM) and the Safety Monitoring Committee (SMC) prior to proceeding with dosing within a cohort or to the next cohort.
The safety population included all subjects who received at least one dose of the study drug. The safety and tolerability of CRS3123 were evaluated by the sequential review of reported adverse events (AEs), changes from baseline in physical examination findings, vital sign measurements, safety laboratory tests (hematology, clinical chemistry, and urinalysis), and key 12-lead ECG findings. All safety assessments were summarized with descriptive statistics or frequency counts.
The period of observation for AE reporting began on day 1 at the time of study drug administration and continued through the final visit.
All AEs were coded to system organ class (SOC) and preferred term (PT) using the Medical Dictionary for Regulatory Activities (MedDRA), version 17.0 (https://www.meddra.org/). A treatment-emergent AE (TEAE) was defined as any AE that occurred during the study observation period (i.e., from day 1 at the time of study drug administration through the final visit). An AE with a partial onset date was classified as a TEAE if the reported partial onset date could not definitely be identified as before the date of study drug administration. Any AE with a missing onset date or missing time on day of study drug administration was classified as a TEAE.
To count the overall number of subjects who experienced each TEAE and calculation of an occurrence rate, a subject experiencing multiple occurrences of an AE was counted only once for that PT. Similarly, if a subject experienced multiple TEAEs within the same SOC, that subject was counted once to calculate an occurrence rate for the SOC. To count the number of subjects who experienced each TEAE by severity classification (mild, moderate, severe, and life-threatening) and calculate an occurrence rate, a subject experiencing multiple occurrences of an AE of the same severity was counted once in that particular severity classification for that PT. If a subject experienced multiple occurrences of an AE of differing severities, only the most severe occurrence within each PT was counted.

[1] = all TEAEs, Cohort B, 400 mg Q12h (n = 8)
[2] = all TEAEs, Cohort C, 600 mg Q12h (n = 8)
[3] = treatment-related AEs, All active (n = 24)
[4] = treatment-related AEs, Cohort A, 200 mg Q12h (n = 8)
[5] = treatment-related AEs, Cohort B, 400 mg Q12h (n = 8)
[6] = treatment-related AEs, Cohort C, 600 mg Q12h (n = 8)

O=c1cc(NCCCN[C@@H]2CCOc3c(Br)cc(Br)cc32)[nH]c2ccsc12 [CRS3123]
No. (%) of subjects: Dry skin [1]: 1 (12.5) | No. (%) of subjects: Dysgeusia [1]: 1 (12.5) | No. (%) of subjects: Ear and labyrinth disorders (system organ class) [1]: 0 (0.0) | No. (%) of subjects: Ear discomfort [1]: 0 (0.0) | No. (%) of subjects: Erythema [1]: 1 (12.5) | No. (%) of subjects: Gastrointestinal disorders (system organ class) [1]: 2 (25.0) | No. (%) of subjects: General disorders and administration site conditions (system organ class) [1]: 0 (0.0) | No. (%) of subjects: Headache [1]: 1 (12.5) | No. (%) of subjects: Hemoglobin decreased [1]: 1 (12.5) | No. (%) of subjects: Infections and infestations (system organ class) [1]: 0 (0.0) | No. (%) of subjects: Infusion site thrombosis [1]: 0 (0.0) | No. (%) of subjects: Injury, poisoning, and procedural complications (system organ class) [1]: 0 (0.0) | No. (%) of subjects: Investigations (system organ class) [1]: 4 (50.0) | No. (%) of subjects: Lipase increased [1]: 2 (25.0) | No. (%) of subjects: Myalgia [1]: 1 (12.5) | No. (%) of subjects: Nervous system disorders (system organ class) [1]: 2 (25.0) | No. (%) of subjects: Oropharyngeal pain [1]: 0 (0.0) | No. (%) of subjects: Psychiatric disorders (system organ class) [1]: 0 (0.0) | No. (%) of subjects: Respiratory, thoracic, and mediastinal disorders (system organ class) [1]: 1 (12.5) | No. (%) of subjects: Skin and subcutaneous tissue disorders (system organ class) [1]: 2 (25.0) | No. (%) of subjects: Subjects with TEAEs [1]: 6 (75.0) | No. (%) of subjects: Throat irritation [1]: 1 (12.5) | No. (%) of subjects: Upper respiratory tract infection [1]: 0 (0.0) | No. (%) of subjects: White blood cell count increased [1]: 0 (0.0) | No. (%) of subjects: Alanine aminotransferase increased [2]: 2 (25.0) | No. (%) of subjects: Amylase increased [2]: 1 (12.5) | No. (%) of subjects: Anxiety [2]: 0 (0.0) | No. (%) of subjects: Arthropod bite [2]: 0 (0.0) | No. (%) of subjects: Aspartate aminotransferase increased [2]: 2 (25.0) | No. (%) of subjects: Blood bilirubin increased [2]: 1 (12.5) | No. (%) of subjects: Blood calcium increased [2]: 0 (0.0) | No. (%) of subjects: Blood potassium increased [2]: 0 (0.0) | No. (%) of subjects: Blood pressure, diastolic, decreased [2]: 1 (12.5) | No. (%) of subjects: Blood pressure, diastolic, increased [2]: 1 (12.5) | No. (%) of subjects: Blood pressure, systolic, decreased [2]: 0 (0.0) | No. (%) of subjects: Blood pressure, systolic, increased [2]: 1 (12.5) | No. (%) of subjects: Diarrhea [2]: 0 (0.0) | No. (%) of subjects: Dry skin [2]: 0 (0.0) | No. (%) of subjects: Dysgeusia [2]: 0 (0.0) | No. (%) of subjects: Ear and labyrinth disorders (system organ class) [2]: 0 (0.0) | No. (%) of subjects: Ear discomfort [2]: 0 (0.0) | No. (%) of subjects: Erythema [2]: 0 (0.0) | No. (%) of subjects: Gastrointestinal disorders (system organ class) [2]: 0 (0.0) | No. (%) of subjects: General disorders and administration site conditions (system organ class) [2]: 1 (12.5) | No. (%) of subjects: Headache [2]: 0 (0.0) | No. (%) of subjects: Hemoglobin decreased [2]: 1 (12.5) | No. (%) of subjects: Infections and infestations (system organ class) [2]: 0 (0.0) | No. (%) of subjects: Infusion site thrombosis [2]: 1 (12.5) | No. (%) of subjects: Injury, poisoning, and procedural complications (system organ class) [2]: 0 (0.0) | No. (%) of subjects: Investigations (system organ class) [2]: 6 (75.0) | No. (%) of subjects: Lipase increased [2]: 2 (25.0) | No. (%) of subjects: Musculoskeletal and connective tissue disorders (system organ class) [2]: 0 (0.0) | No. (%) of subjects: Myalgia [2]: 0 (0.0) | No. (%) of subjects: Nervous system disorders (system organ class) [2]: 0 (0.0) | No. (%) of subjects: Oropharyngeal pain [2]: 1 (12.5) | No. (%) of subjects: Psychiatric disorders (system organ class) [2]: 0 (0.0) | No. (%) of subjects: Respiratory, thoracic, and mediastinal disorders (system organ class) [2]: 1 (12.5) | No. (%) of subjects: Skin and subcutaneous tissue disorders (system organ class) [2]: 0 (0.0) | No. (%) of subjects: Subjects with TEAEs [2]: 6 (75.0) | No. (%) of subjects: Throat irritation [2]: 0 (0.0) | No. (%) of subjects: Upper respiratory tract infection [2]: 0 (0.0) | No. (%) of subjects: White blood cell count increased [2]: 0 (0.0) | withdrawals due to TEAEs (all doses): No subjects were withdrawn | No. (%) of subjects: Alanine aminotransferase increased [3]: 1 (4.2) | No. (%) of subjects: Diarrhea [3]: 1 (4.2) | No. (%) of subjects: Dysgeusia [3]: 1 (4.2) | No. (%) of subjects: Gastrointestinal disorders (system organ class) [3]: 1 (4.2) | No. (%) of subjects: Investigations (system organ class) [3]: 1 (4.2) | No. (%) of subjects: Lipase increased [3]: 0 (0.0) | No. (%) of subjects: Nervous system disorders (system organ class) [3]: 1 (4.2) | No. (%) of subjects: Subjects with TEAEs [3]: 3 (12.5) | No. (%) of subjects: Alanine aminotransferase increased [4]: 0 (0.0) | No. (%) of subjects: Diarrhea [4]: 0 (0.0) | No. (%) of subjects: Dysgeusia [4]: 0 (0.0) | No. (%) of subjects: Gastrointestinal disorders (system organ class) [4]: 0 (0.0) | No. (%) of subjects: Investigations (system organ class) [4]: 0 (0.0) | No. (%) of subjects: Lipase increased [4]: 0 (0.0) | No. (%) of subjects: Nervous system disorders (system organ class) [4]: 0 (0.0) | No. (%) of subjects: Alanine aminotransferase increased [5]: 0 (0.0) | No. (%) of subjects: Diarrhea [5]: 1 (12.5) | No. (%) of subjects: Dysgeusia [5]: 1 (12.5) | No. (%) of subjects: Gastrointestinal disorders (system organ class) [5]: 1 (12.5) | No. (%) of subjects: Investigations (system organ class) [5]: 0 (0.0) | No. (%) of subjects: Lipase increased [5]: 0 (0.0) | No. (%) of subjects: Nervous system disorders (system organ class) [5]: 1 (12.5) | No. (%) of subjects: Alanine aminotransferase increased [6]: 1 (12.5) | No. (%) of subjects: Diarrhea [6]: 0 (0.0) | No. (%) of subjects: Dysgeusia [6]: 0 (0.0) | No. (%) of subjects: Gastrointestinal disorders (system organ class) [6]: 0 (0.0) | No. (%) of subjects: Investigations (system organ class) [6]: 1 (12.5) | No. (%) of subjects: Lipase increased [6]: 0 (0.0) | No. (%) of subjects: Nervous system disorders (system organ class) [6]: 0 (0.0) | severity of TEAEs (whole study): majority of TEAEs reported in the study were of mild severity

Source: PMC7187627 (Antimicrobial Agents and Chemotherapy, 2019)
